Test results: US11541067B2, “HMO compositions and methods for reducing detrimental proteolytic metabolites” (Glycom A/S, priority 2017, dated 2023)

Tested on: microbial metabolites
Test: M-SHIME (M-TripleSHIME) in vitro gastrointestinal model: bacterial metabolite analysis
Format: cell-based, human
Conditions: proximal (PC) and distal (DC) colon reactor; FIG. 1 in mg/l, means of three weekly samples
Source text: The impact of the HMOs on microbiota and bacterial metabolites was investigated in the M-SHIME® (M-TripleSHlME®) in vitro gastrointestinal model (Prodigest). The typical reactor setup of the M-TripleSHIME® consisted of a succession of four reactors simulating the different parts of the human gastrointestinal tract. The first two reactors were of the fill-and-draw principle to simulate different steps in food uptake and digestion, with peristaltic pumps adding a defined amount of SHIME feed (140 mL 3×/day) and pancreatic and bile liquid (60 ml 3×/day), respectively, to the stomach and small intestine compartment and emptying the respective reactors after specified intervals. The last two compartments were continuously stirred reactors with constant volume and pH control. […]
The M-TripleSHIME® was run in four stages: • 1. […] The baseline microbial community composition and activity in the different reactors was determined by analysis of samples and was used as a reference. • 3. […]
Sample of the liquids in each reactor were collected regularly (three times in a week, on day 1, day 3 and day 5) and were analysed for microbial metabolites and the composition of the resident microbial community. In particular, the bifidobacteria composition was analysed using ITS profiling.

Question: `CC(=O)N[C@H]1[C@H](O[C@H]2[C@@H](O)[C@@H](CO)O[C@@H](O[C@H]3[C@H](O)[C@@H](O)C(O)O[C@@H]3CO)[C@@H]2O)O[C@H](CO)[C@@H](O[C@@H]2O[C@H](CO)[C@H](O)[C@H](O)[C@H]2O)[C@@H]1O` (mixture of isomers) [LNnT, lacto-N-neotetraose] was tested. Which “ammonia production compared with the effect of 2′-FL (FIG. 1)” value did it give?
Answer: similar

Question: And the “branched SOFA production compared with the effect of 2′-FL (FIG. 1)” value?
Answer: similar
